Patent publication US7288567B2, “Inhibitors of histone deacetylase” (Methylgene Inc., priority 2000, dated 2007)
Like-named read-outs stand apart in the source and are kept apart here.

Columns and labels:
[1] = system: acetylated histone H-4 in T24 human bladder cancer cells; experiment: Histone H4 acetylation in whole cells by immunoblots; format: cell-based
Method: T24 human bladder cancer cells growing in culture were incubated with HDAC inhibitors for 16 hours. Histones were extracted from the cells after the culture period as described by M. Yoshida et al. (J. Biol. Chem. 265(28): 17174-17179 (1990)). 20 μg of total histone protein was loaded onto SDS/PAGE and transferred to nitrocellulose membranes. Membranes were probed with polyclonal antibodies specific for acetylated histone H-4 (Upstate Biotech Inc.), followed by horse radish peroxidase conjugated secondary antibodies (Sigma). Enhanced Chemiluminescence (ECL) (Amersham) detection was performed using Kodak films (Eastman Kodak). Acetylated H-4 signal was quantified by densitometry.

[2] = biological target: T1, recombinant human HDAC-1 enzyme (rHDAC-1) (Homo sapiens, UniProt Q13547); experiment: Histone deacetylase inhibition, recombinant human HDAC-1; format: biochemical; conditions: cloned recombinant human HDAC-1, Baculovirus insect cell expression; read-out: rHDAC-1 IC50
T1 construct: made in house; host or cells: Baculovirus insect cell expression system
Method: (§1) The reaction was stopped by adding acetic acid (0.04 M, final concentration) and HCl (250 mM, final concentration). The mixture was extracted with ethyl acetate and the released [^3H]-acetic acid was quantified by scintillation counting. For inhibition studies, the enzyme was preincubated with compounds at 4° C. for 30 minutes prior to initiation of the enzymatic assay. IC50 values for HDAC enzyme inhibitors were determined by performing dose response curves with individual compounds and determining the concentration of inhibitor producing fifty percent of the maximal inhibition.

[3] = system: histone deacetylase enzyme in nuclear extracts from H446 cells (pooled HDACs); experiment: Histone deacetylase inhibition, H446 nuclear extracts (pooled HDACs); format: biochemical, human; conditions: for IC50: H446 nuclear extract, [3H]-acetylated histone substrate; for pooled HDACs percent inhibition: percent inhibition at 20 μM (footnote)
Method: HDAC inhibitors were screened against histone deacetylase enzyme in nuclear extracts prepared from the human small cell lung cancer cell line H446 (ATTC HTB-171) and against a cloned recombinant human HDAC-1 enzyme expressed and purified from a Baculovirus insect cell expression system.
as §1, with “For deacetylase assays, 20,000 cpm of the [^3H]-metabolically labeled acetylated histone substrate (M. Yoshida et al., J. Biol. Chem. 265(28): 17174-17179 (1990)) was incubated with 30 μg of H446 nuclear extract or an equivalent amount of the cloned recombinant hHDAC-1 for 10 minutes at 37° C. The reaction” for “The reaction”

[4] = T-24, read-out: EC50, concentration effective for reducing the acetylated H-4 signal by 50%, T24 cells, 16 hours incubation, immunoblot densitometry

T1 sequence (Q13547 whole entry): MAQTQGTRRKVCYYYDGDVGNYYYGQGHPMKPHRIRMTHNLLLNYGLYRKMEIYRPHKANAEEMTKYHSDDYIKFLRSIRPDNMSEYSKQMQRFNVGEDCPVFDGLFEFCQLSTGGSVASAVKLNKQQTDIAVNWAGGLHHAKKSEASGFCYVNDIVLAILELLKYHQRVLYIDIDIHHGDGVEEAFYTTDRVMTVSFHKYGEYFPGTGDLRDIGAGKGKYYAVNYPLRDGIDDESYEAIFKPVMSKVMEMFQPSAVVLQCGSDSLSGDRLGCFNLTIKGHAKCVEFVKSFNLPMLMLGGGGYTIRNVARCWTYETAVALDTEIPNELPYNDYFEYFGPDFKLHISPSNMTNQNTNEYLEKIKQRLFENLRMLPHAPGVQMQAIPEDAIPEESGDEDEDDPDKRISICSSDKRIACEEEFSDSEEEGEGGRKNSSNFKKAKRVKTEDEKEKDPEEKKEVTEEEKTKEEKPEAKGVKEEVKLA

IC50 [2] [nM] | IC50 [3] [nM] | Structure (SMILES) | other results
10 |  | COc1ccc2cc(C(=O)CCCCCCC(=O)NO)ccc2c1 [Compound 105a, N-Hydroxy-7-[2-(6-methoxy)naphthoyl]heptanamide] | pooled HDACs percent inhibition @ 1 μM [3]: 83%@ 1 μM
20 |  | CSc1ncccc1C(=O)CCCCCCC(=O)NO [Compound 105b] | pooled HDACs percent inhibition @ 1 μM [3]: 40%@ 1 μM
4 |  | O=C(CCCCCCC(=O)c1ccc(Nc2ccccc2)cc1)NO [Compound 138a, N-Hydroxy-7-[4-(N-phenyl)benzoyl]heptanamide] | pooled HDACs percent inhibition @ 1 μM [3]: 83%@ 1 μM
8 | 49 | CN(c1ccccc1)c1ccc(C(=O)CCCCCCC(=O)NO)cc1 [Compound 138b, N-Hydroxy-7-[4-(N-methyl-N-phenyl)benzoyl]heptanamide] | 
4 | 20 | O=C(CCCCCCC(=O)c1ccc(Nc2ccccn2)cc1)NO [Compound 138d, N-Hydroxy-7-[4-(N-2-aminopyridyl)benzoyl]heptanamide] | 
4 | 20 | O=C(CCCCCCC(=O)c1ccc(Nc2nccs2)cc1)NO [Compound 138e, N-Hydroxy-7-[4-(N-2-aminothiazolyl)benzoyl]heptanamide] | 
33 | 100 | O=C(CCCCCCC(=O)c1ccc(N2CCOCC2)cc1)NO [Compound 138i, N-Hydroxy-7-[4-(N-morpholinyl)benzoyl]heptanamide] | 
35 |  | O=C(CCCCCCC(=O)c1cnc2ccccc2c1)NO [Compound 141b, N-Hydroxy-7-[(3-quinolinyl)carbonyl]heptanamide] | pooled HDACs percent inhibition @ 1 μM [3]: 71%@ 1 μM
100 | 50 | CC(=O)SCC(=O)CCCCCCC(=O)c1ccccc1 [Compound 159a, 1-Acetylthio-2,9-dioxo-9-phenyl-nonane] | 
500 |  | CSCC(=O)CCCCCCC(=O)c1ccccc1 [Compound 159b, 1-Methylthio-2,9-dioxo-9-phenyl-nonane] | pooled HDACs percent inhibition @ 5 μM [3]: 14%@ 5 μM
5000 |  | O=C(CCCCCCC(=O)c1ccccc1)CSCc1ccccc1 [Compound 159c, 1-Benzylthio-2,9-dioxo-9-phenyl-nonane] | pooled HDACs percent inhibition @ 5 μM [3]: 0%@ 5 μM
5000 | 50000 | O=C(CCCCCCC(=O)c1ccccc1)CSc1ccccc1 [Compound 159d, 1-Phenylthio-2,9-dioxo-9-phenyl-nonane] | 
50 | 50 | O=C(CS)CCCCCCC(=O)c1ccccc1 [Compound 159e, 1-Mercapto-2,9-dioxo-9-phenyl-nonane] | 
700 | 350 | O=C(CCCCCCC(=O)c1ccccc1)CSC(=O)c1ccccc1 [Compound 159f, 1-Benzoylthio-2,9-dioxo-9-phenyl-nonane] | 
50 |  | O=C(CCCCCn1cnc2ccccc2c1=O)NO [Compound 238a, N-Hydroxy-6-[3-(4-Oxo-4H-quinazolinyl)]hexanamide] | pooled HDACs percent inhibition @ 1 μM [3]: 0%@ 1 μM
760 |  | O=C(CCCCCn1nnc2ccccc2c1=O)NO [Compound 238b, N-Hydroxy-6-[3-(4-oxo-4H-benzo[d][1,2,3]triazinyl)]hexanamide] | pooled HDACs percent inhibition @ 1 μM [3]: 20%@ 1 μM
8100 |  | Nc1ccccc1NC(=O)CCCCCn1nnc2ccccc2c1=O [Compound 239b] | pooled HDACs percent inhibition [3]: 14%
1600 |  | Nc1ccccc1NC(=O)CCCCCN1C(=O)c2ccccc2C1=O [Compound 243a, N-(2-Aminophenyl)-6-(N-phthaloyl)hexanamide] | pooled HDACs percent inhibition [3]: 6%

Second part, the molecule before the results:

Structure (SMILES) | IC50 [2] [nM] | IC50 [3] [nM] | other results
Nc1ccccc1NC(=O)CCCCCCC(=NO)c1cccc(-c2ccccc2)c1 (mixture of isomers) [Compound 134, N-(2-Aminophenyl)-8-(E)-oximino-8-(3-biphenyl)octanamide] | 1000 |  | EC50 [1, 4]: 10000 nM
O=C(CCCCCC/C(=N\O)c1cc2ccccc2s1)NO [Compound 99, N-Hydroxy-8-(Z)-oximino-8-(2-benzo[b]thiophene)octanamide] | 8 | 35 | 
Cn1c(C(=O)CCCCCCC(=O)NO)cc2ccccc21 [Compound 103, N-Hydroxy-7-[2-((N-methyl)indolyl)carbonyl]heptanamide] | 50 | 100 | 
O=C(CCCCCCC(=O)c1ccc(Oc2ccccc2)cc1)NO [Compound 104, N-Hydroxy-7-(4-phenoxybenzoyl)heptanamide] | 160 |  | pooled HDACs percent inhibition @ 1 μM [3]: 61%@ 1 μM
O=C(CCCCCC(=O)c1cc2ccccc2[nH]1)NO [Compound 112, N-Hydroxy-6-[(2-indolyl)carbonyl]hexanamide] | 39 | 250 | 
O=C(CCCCCC(=O)c1cc2ccccc2s1)NO [Compound 113, N-Hydroxy-6-[(2-benzo[b]thiophene)carbonyl]hexanamide] | 130 |  | pooled HDACs percent inhibition @ 1 μM [3]: 33%@ 1 μM
Nc1ccccc1NC(=O)CCCCCCC(=O)c1ccc(Br)cc1 [Compound 114, N-(2-Aminophenyl)-7-(4-bromobenzoyl)heptanamide] | 6300 | > 20000 | 
Nc1ccccc1NC(=O)CCCCCCC(=O)c1ccc(-c2ccsc2)cc1 [Compound 117, N-(2-Aminophenyl)-7-[4-(3-thiophenyl)benzoyl]heptanamide] | 9000 |  | pooled HDACs percent inhibition [3]: 0%
Nc1ccccc1NC(=O)CCCCCCC(=O)c1ccc(-c2cccnc2)cc1 [Compound 127, N-(2-Aminophenyl)-7-[4-(3-pyridyl)benzoyl]heptanamide] | 10300 |  | pooled HDACs percent inhibition [3]: 0%
O=C(CCCCCCC(=O)c1cccnc1)NO [Compound 141a1, N-Hydroxy-7-[(3-pyridyl)carbonyl]heptanamide] | 60 |  | pooled HDACs percent inhibition @ 1 μM [3]: 22%@ 1 μM
O=C(CCCCCCC(=O)c1ccc(-c2ccccc2)nc1)NO [Compound 145, N-Hydroxy-7-[(5-(2-phenyl)pyridyl)carbonyl]heptanamide] | 8 |  | EC50 [1, 4]: 10000 nM
CC(=O)SCC(=O)CCCCCC(=O)c1cc2ccccc2s1 [Compound 160, 1-Acetylthio-2,8dioxo-8-(2-benzo[b]thiophene)-octane] | 130 | 80 | 
O=C(CS)CCCCCC(=O)c1cc2ccccc2s1 [Compound 161, 1-Mercapto-2,8-dioxo-8-(2-benzo[b]thiophene)-octane] | 71 | 94 | 
CC(=O)SCC(=O)CCCCCCC(=O)c1cc2ccccc2s1 [Compound 162, 1-Acetylthio-2,9-dioxo-9-(2-benzo[b]thiophene)-nonane] | 35 | 40 | 
O=C(CS)CCCCCCC(=O)c1cc2ccccc2s1 [Compound 163, 1-Mercapto-2,9-dioxo-9-(2-benzo[b]thiophene)-nonane] | 10 | 40 | 
Nc1ccccc1NC(=O)CCCCCCC(=O)c1cc2ccccc2s1 [Compound 164, N-(2-Aminophenyl)-7-[(2-benzo[b]thiophene)carbonyl]heptanamide] | 2300 |  | pooled HDACs percent inhibition [3]: 18%
CC(=O)SCC(=O)CCCCCCC(=O)c1cc2ccccc2n1C [Compound 165, 1-Acetylthio-2,9-dioxo-9-(2-(N-methyl)indolyl)-nonane] | 90 | 40 | 
Cn1c(C(=O)CCCCCCC(=O)CS)cc2ccccc21 [Compound 166, 1-Mercapto-2,9-dioxo-9-(2-N-methylindolyl)-nonane] | 420 | 50 | 
CC(=O)SCC(=O)CCCCCCC(=O)c1cc2ccccc2[nH]1 [Compound 167, 1-Acetylthio-2,9-dioxo-9-(2-indolyl)-nonane] | 400 | 300 | 
CC(CCCCC(=O)c1ccc2ccccc2c1)CC(=O)NO (stereo not drawn) [Compound 199, N-Hydroxy-3-methyl-7-(2-naphthoyl)heptanamide] | 30 | 80 | 
O=C(CCCCCCOc1ccc(-c2ccccc2)cc1)NO [Compound 235, N-Hydroxy-7-(4-biphenyloxy)heptanamide] |  |  | EC50 ([1]; T-24, 16 h, read-out: EC50, concentration effective for reducing the acetylated H-4 signal by 50%): 5000 nM
O=C(CCCCCCC(=O)c1ccccc1)Nc1cccnc1 [Compound 252] | > 20000 |  | pooled HDACs percent inhibition [3]: 0%
O=C(NCCCCCCC(=O)c1ccccc1)Nc1ccccc1O [Compound 253] | > 20000 |  | pooled HDACs percent inhibition [3]: 0%
